This is an account of results in paper PMC8460406, “PET/CT imaging of head-and-neck and pancreatic cancer in humans by targeting the “Cancer Integrin” αvβ6 with Ga-68-Trivehexin” (European Journal of Nuclear Medicine and Molecular Imaging, 2021).

pIC50: −log10 of the molar value. Like-named read-outs stand apart in the source and are kept apart here.

For one data set, the target named is α5β1-integrin (Homo sapiens, UniProt P05556+P08648). As to the kind of experiment: ELISA on immobilized integrins (integrin affinity), α5β1. In kind it is binding. The settings on record: for αvβ6-selectivity over α5β1: IC50-based factor. An excerpt:
(§1) Materials, reagents, general procedures, and instrumentation used for chemical syntheses and analyses have been detailed elsewhere. In addition to what has been reported before, the building block TRAP(azide)3 was purchased from Fosfinos s.r.o. (Kladno, CZ). c[FGDLAFp(NMe)K(pentynoic amide)] and TRAP(AvB6)3 were synthesized according to the literature. Previously described protocols were followed for determination of integrin affinities by ELISA on immobilized integrins and for β6-integrin immunohistochemistry (IHC).

The target in another data set is αvβ8-integrin (Homo sapiens, UniProt P06756+P26012). As to the kind of experiment: ELISA on immobilized integrins (integrin affinity), αvβ8. The settings on record: for pIC50: 95% confidence interval in parentheses; for αvβ6-selectivity over αvβ8: IC50-based factor. It counts as binding.
αvβ8-integrin, sequence (P06756 31-992 limits assumed): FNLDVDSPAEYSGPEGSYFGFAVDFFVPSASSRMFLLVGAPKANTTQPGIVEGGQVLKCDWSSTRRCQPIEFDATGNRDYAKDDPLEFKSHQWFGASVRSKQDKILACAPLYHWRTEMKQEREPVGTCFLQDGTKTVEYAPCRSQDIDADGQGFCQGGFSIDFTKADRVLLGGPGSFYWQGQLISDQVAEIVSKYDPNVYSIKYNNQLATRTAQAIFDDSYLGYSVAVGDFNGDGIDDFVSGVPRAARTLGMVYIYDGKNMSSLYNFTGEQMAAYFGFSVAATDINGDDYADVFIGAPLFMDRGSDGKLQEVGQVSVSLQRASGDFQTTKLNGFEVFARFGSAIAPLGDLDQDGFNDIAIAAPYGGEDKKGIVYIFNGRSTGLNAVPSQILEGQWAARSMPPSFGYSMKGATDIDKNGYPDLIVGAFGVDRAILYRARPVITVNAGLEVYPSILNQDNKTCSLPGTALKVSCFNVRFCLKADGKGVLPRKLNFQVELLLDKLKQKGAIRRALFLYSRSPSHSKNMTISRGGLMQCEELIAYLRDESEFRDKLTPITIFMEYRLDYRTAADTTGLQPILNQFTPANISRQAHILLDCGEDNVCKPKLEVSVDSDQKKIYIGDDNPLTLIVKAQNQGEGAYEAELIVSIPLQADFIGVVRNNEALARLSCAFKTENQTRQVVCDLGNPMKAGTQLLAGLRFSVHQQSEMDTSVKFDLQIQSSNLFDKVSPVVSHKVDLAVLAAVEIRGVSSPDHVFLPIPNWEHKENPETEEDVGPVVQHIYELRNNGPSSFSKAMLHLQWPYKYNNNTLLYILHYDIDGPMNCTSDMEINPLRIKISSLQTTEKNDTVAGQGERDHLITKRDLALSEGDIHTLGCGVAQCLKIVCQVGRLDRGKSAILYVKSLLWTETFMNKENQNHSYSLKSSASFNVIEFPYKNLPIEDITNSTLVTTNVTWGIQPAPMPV
αvβ8-integrin, sequence (P26012 43-684 limits assumed): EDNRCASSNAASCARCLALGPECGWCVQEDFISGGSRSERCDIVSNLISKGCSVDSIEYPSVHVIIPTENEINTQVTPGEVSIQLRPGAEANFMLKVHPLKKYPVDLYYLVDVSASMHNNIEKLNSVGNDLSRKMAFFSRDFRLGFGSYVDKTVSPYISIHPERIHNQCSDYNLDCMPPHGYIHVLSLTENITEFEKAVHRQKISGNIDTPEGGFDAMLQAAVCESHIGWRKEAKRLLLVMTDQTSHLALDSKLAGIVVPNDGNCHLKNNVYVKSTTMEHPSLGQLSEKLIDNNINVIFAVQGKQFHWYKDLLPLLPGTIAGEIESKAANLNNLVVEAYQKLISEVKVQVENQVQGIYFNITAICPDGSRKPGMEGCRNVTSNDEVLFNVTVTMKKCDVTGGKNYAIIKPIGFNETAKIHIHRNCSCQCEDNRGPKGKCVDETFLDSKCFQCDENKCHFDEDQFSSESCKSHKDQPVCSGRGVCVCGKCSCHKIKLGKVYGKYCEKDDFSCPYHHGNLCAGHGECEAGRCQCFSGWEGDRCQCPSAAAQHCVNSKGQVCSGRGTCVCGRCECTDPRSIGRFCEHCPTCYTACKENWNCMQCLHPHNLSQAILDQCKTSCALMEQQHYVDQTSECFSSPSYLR
From the text: as §1
For orientation: In an ELISA, binding on a coated surface is turned into a signal by an enzyme label.

The target of data set [1] is T1, αvβ6-integrin (Homo sapiens, UniProt P06756+P18564). Put plainly: ELISA on immobilized integrins (integrin affinity), αvβ6. It counts as binding. Particulars: 95% confidence interval in parentheses.
T1 sequence (P06756 31-992 limits assumed): as the sequence (P06756 31-992 limits assumed) above
T1 sequence (P18564 22-707 limits assumed): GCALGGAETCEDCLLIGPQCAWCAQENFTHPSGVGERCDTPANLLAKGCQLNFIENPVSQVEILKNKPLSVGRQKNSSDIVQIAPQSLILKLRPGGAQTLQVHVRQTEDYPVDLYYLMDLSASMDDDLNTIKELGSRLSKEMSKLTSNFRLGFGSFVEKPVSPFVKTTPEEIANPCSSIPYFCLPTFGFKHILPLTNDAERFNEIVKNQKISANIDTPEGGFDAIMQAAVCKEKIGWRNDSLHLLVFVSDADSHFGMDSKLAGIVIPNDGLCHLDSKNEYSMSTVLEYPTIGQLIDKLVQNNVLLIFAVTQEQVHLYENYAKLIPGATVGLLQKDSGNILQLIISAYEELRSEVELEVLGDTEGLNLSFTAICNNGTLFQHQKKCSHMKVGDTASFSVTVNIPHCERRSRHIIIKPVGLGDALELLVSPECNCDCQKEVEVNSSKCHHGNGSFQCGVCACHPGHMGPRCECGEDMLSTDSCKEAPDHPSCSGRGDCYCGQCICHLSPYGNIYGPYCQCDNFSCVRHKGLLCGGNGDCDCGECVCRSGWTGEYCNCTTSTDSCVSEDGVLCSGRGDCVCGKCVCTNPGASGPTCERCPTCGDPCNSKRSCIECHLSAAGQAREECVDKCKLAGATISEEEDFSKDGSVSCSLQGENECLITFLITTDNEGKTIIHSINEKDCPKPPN
From the text: as §1

The target in another data set is αvβ3-integrin (Homo sapiens, UniProt P05106+P06756). Put plainly: ELISA on immobilized integrins (integrin affinity), αvβ3. In kind it is binding. Particulars: for pIC50: 95% confidence interval in parentheses; for αvβ6-selectivity over αvβ3: IC50-based factor.
From the text: as §1

Data set [2] has as its target T1, αvβ6-integrin. Particulars: cited from earlier work.
The next data set is described as follows: in vivo. The settings on record: SCID, mouse, total radioactivity. From the text: All animal experiments were approved by the responsible authority (Regierung von Oberbayern) and have been performed in accordance with general animal welfare regulations in Germany and the institutional guidelines for the care and use of animals. Keeping of the animals, generation of subcutaneous H2009 and MDA-MB-231 tumor xenografts, ex-vivo biodistribution studies, and µPET imaging were done according to previously described protocols. Multiplicity of PET and biodistribution studies ranged from 3 to 5; animal numbers for each individual experiment are denoted in the respective data tables in the Supporting Information and, additionally, in the Results section.

Data set [3] is classed as physicochemical. Particulars: pH 7.4. An excerpt:
Radiolabeling for preclinical experiments and determination of n-octanol–PBS distribution coefficients (log D7.4) was done as described. Applying this protocol, 5 nmol (0.5 nmol for cellular assays in order to maximize molar activity) of TRAP(AvB6)3 or Trivehexin were labeled with ^68 Ga at pH 2, resulting in RCY > 95%. The purity of the radiolabeled compounds was confirmed by radio-TLC, using silica impregnated glass fiber chromatography paper (ITLC® by Agilent) as stationary phase and 0.1 M aq. sodium citrate as mobile phase (purities were > 99%).

Data set [4] relates to αvβ6-integrin expressing carcinomas. Put plainly: PET/CT imaging of carcinomas in human (HNSCC, parotideal adenocarcinoma, PDAC). In kind it is in vivo. As for the experimental part: All human participants provided written informed consent, also for publication of images, prior to the investigation. […] No significant changes in vital signs or the results of laboratory studies or electrocardiograms were observed. Data for a total of 4 human subjects were included in this report. The PET/CT for patient #1 was performed according to a previously published protocol, as was calculation of the dosimetric parameters.
A panendoscopy and tracheostomy were carried out 4 weeks prior to the [^18F]FDG. The tumor was not suitable for surgical removal and a simultaneous radiochemotherapy was indicated.
Patient #3 (Fig. 4C–E) was diagnosed with an adenocarcinoma (salivary duct carcinoma) in the right […] in 2019 and initially underwent total parotidectomy and unilateral neck dissection (pT2 pN1b [21/23] L1 V1 Pn1 R1). A post-resection and contralateral neck-dissection was performed 1 month later, followed by adjuvant radiation. In 2020 the patient developed prelaryngeal and lateral orbita angle metastases, which were resected and adjuvantly irradiated. […] Since no further tumor manifestations were present in both examinations, surgical resection was indicated and performed. β6-integrin IHC [21] was done for specimen of the excised metastasis.
Patient #4 was diagnosed with a carcinoma of the pancreatic head by endosonography and CT morphology. Pancreatic adenocarcinoma was verified by biopsy. […] According to this finding, surgical treatment was rejected and a chemotherapy regimen was started.

Setting [5] is: ref [34], read-out: IC50 (αvβ6-integrin affinity).

α5β1-integrin, sequence (P08648 42-995 limits assumed): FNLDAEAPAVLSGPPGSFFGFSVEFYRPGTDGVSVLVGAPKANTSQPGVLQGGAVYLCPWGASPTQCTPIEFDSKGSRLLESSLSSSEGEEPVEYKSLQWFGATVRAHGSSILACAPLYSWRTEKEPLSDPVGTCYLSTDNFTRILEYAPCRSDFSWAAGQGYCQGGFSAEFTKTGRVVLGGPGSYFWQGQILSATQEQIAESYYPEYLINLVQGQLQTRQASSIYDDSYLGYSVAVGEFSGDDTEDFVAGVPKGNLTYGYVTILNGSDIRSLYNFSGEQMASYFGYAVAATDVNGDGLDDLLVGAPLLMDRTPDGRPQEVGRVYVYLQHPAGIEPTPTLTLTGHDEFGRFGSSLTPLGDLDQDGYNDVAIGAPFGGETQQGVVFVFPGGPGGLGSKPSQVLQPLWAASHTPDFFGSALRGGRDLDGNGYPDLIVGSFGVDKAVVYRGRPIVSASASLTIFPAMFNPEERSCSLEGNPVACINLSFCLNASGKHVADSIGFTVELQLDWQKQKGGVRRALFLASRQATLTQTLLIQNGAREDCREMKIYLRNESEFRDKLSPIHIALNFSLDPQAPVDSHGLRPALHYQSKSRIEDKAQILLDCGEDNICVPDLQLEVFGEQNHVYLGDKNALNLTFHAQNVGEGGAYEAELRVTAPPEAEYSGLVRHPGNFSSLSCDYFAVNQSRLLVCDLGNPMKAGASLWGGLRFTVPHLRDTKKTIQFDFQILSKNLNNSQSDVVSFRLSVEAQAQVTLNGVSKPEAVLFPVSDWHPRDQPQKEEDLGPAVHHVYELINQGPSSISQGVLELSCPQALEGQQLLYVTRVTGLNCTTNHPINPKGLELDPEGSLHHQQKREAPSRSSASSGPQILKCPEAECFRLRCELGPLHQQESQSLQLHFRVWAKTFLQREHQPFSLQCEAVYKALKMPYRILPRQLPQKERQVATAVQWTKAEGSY
α5β1-integrin, sequence (P05556 21-728 limits assumed): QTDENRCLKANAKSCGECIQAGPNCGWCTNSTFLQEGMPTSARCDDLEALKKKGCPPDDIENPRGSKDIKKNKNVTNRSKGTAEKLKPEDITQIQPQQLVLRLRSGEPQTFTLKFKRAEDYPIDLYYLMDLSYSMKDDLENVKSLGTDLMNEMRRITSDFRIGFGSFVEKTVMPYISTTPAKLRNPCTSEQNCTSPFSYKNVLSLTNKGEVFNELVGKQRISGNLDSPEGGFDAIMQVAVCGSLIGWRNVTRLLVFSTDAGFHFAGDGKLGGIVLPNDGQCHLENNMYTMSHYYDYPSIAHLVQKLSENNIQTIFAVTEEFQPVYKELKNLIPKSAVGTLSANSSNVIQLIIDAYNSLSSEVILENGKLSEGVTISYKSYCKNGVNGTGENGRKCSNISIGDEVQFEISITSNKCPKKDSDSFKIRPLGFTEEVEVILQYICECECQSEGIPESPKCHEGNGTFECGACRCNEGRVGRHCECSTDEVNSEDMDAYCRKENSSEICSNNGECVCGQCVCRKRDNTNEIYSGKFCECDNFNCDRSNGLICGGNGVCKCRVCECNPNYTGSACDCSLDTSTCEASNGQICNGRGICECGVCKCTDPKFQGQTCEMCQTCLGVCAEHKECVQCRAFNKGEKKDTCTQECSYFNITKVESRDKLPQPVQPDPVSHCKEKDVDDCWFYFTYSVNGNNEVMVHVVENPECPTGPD

On to `C#CCCC(=O)NCCCC[C@H]1C(=O)N[C@@H](Cc2ccccc2)C(=O)N[C@@H](CCCNC(=N)N)C(=O)NCC(=O)N[C@@H](CC(=O)O)C(=O)N[C@@H](CC(C)C)C(=O)N[C@@H](C)C(=O)N[C@@H](Cc2ccccc2)C(=O)N2CCC[C@@H]2C(=O)N1C` [c[FRGDLAFp(NMe)K(pentynoic amide)], reference compound], for which the “αvβ6-selectivity over α5β1” value at α5β1-integrin is given as 1329. The pIC50 on αvβ8-integrin is 7.49; on αvβ6-integrin [1] it was 9.77; on αvβ3-integrin, 6.37. At αvβ8-integrin, the “αvβ6-selectivity over αvβ8” value stood at 188. On αvβ3-integrin, the “αvβ6-selectivity over αvβ3” value came out at 2494.

Turning to “c[YRGDLAFp(NMe)K] (YRGDLAFPK; HELM PEPTIDE1{Y.R.G.D.L.A.F.[dP].[meK]}$PEPTIDE1,PEPTIDE1,1:R1-9:R2$$$V2.0; SMILES CC(C)C[C@@H]1NC(=O)[C@H](CC(=O)O)NC(=O)CNC(=O)[C@H](CCCNC(=N)N)NC(=O)[C@H](Cc2ccc(O)cc2)NC(=O)[C@H](CCCCN)N(C)C(=O)[C@H]2CCCN2C(=O)[C@H](Cc2ccccc2)NC(=O)[C@H](C)NC1=O)”, the pIC50 in the data set with αvβ6-integrin [2] (setting [5]) is 9.40.

For “c[FRGDLAYp(NMe)K] (FRGDLAYPK; HELM PEPTIDE1{F.R.G.D.L.A.Y.[dP].[meK]}$PEPTIDE1,PEPTIDE1,1:R1-9:R2$$$V2.0; SMILES CC(C)C[C@@H]1NC(=O)[C@H](CC(=O)O)NC(=O)CNC(=O)[C@H](CCCNC(=N)N)NC(=O)[C@H](Cc2ccccc2)NC(=O)[C@H](CCCCN)N(C)C(=O)[C@H]2CCCN2C(=O)[C@H](Cc2ccc(O)cc2)NC(=O)[C@H](C)NC1=O)”, the pIC50 in the data set with αvβ6-integrin [2] (setting [5]) is 9.41.

Consider `C#CCCC(=O)NCCCC[C@H]1C(=O)N[C@@H](Cc2ccc(O)cc2)C(=O)N[C@@H](CCCNC(=N)N)C(=O)NCC(=O)N[C@@H](CC(=O)O)C(=O)N[C@@H](CC(C)C)C(=O)N[C@@H](C)C(=O)N[C@@H](Cc2ccc(O)cc2)C(=O)N2CCC[C@@H]2C(=O)N1C` [Tyr2-alkyne, c[YRGDLAYp(NMe)K(pentynoic amide)]], for which the pIC50 was 6.82 at α5β1-integrin (95% confidence interval in parentheses), 7.59 at αvβ8-integrin, 9.08 at αvβ6-integrin [1] and 6.66 on αvβ3-integrin. Also, on α5β1-integrin, the “αvβ6-selectivity over α5β1” value was found to be 179. In addition, on αvβ8-integrin, the “αvβ6-selectivity over αvβ8” value stood at 31. The “αvβ6-selectivity over αvβ3” value on αvβ3-integrin came to 261.

In the case of `CC(C)C[C@@H]1NC(=O)[C@H](CC(=O)O)NC(=O)CNC(=O)[C@H](CCCNC(=N)N)NC(=O)[C@H](Cc2ccccc2)NC(=O)[C@H](CCCCNC(=O)CCc2cn(CCCNC(=O)CCP(=O)(O)CN3CCN(CP(=O)(O)CCC(=O)NCCCn4cc(CCC(=O)NCCCC[C@H]5C(=O)N[C@@H](Cc6ccccc6)C(=O)N[C@@H](CCCNC(=N)N)C(=O)NCC(=O)N[C@@H](CC(=O)O)C(=O)N[C@@H](CC(C)C)C(=O)N[C@@H](C)C(=O)N[C@@H](Cc6ccccc6)C(=O)N6CCC[C@@H]6C(=O)N5C)nn4)CCN(CP(=O)(O)CCC(=O)NCCCn4cc(CCC(=O)NCCCC[C@H]5C(=O)N[C@@H](Cc6ccccc6)C(=O)N[C@@H](CCCNC(=N)N)C(=O)NCC(=O)N[C@@H](CC(=O)O)C(=O)N[C@@H](CC(C)C)C(=O)N[C@@H](C)C(=O)N[C@@H](Cc6ccccc6)C(=O)N6CCC[C@@H]6C(=O)N5C)nn4)CC3)nn2)N(C)C(=O)[C@H]2CCCN2C(=O)[C@H](Cc2ccccc2)NC(=O)[C@H](C)NC1=O` [^68 Ga-TRAP(AvB6)3], on αvβ6-integrin [2] (ref [17], read-out: αvβ6-integrin affinity), the pIC50 was 10.64. For the same compound, the tissue to tissue ratio at 1.5 h in the data set “in vivo” (tumor/organ ratio Adrenals) is 3.7; in “in vivo” (tumor/organ ratio Blood) it was 2.2; in the data set “in vivo” (tumor/organ ratio Heart (myocard)), 4.2; in “in vivo” (tumor/organ ratio Kidneys) it was 0.1; in “in vivo” (tumor/organ ratio Large intestine (empty)) it was 1.6; in “in vivo” (tumor/organ ratio Liver), 1.2. Also, the tissue to tissue ratio at 1.5 h in “in vivo” (tumor/organ ratio Lung) is 0.6; in the data set “in vivo” (tumor/organ ratio Muscle) it was 8.1; in “in vivo” (tumor/organ ratio Pancreas), 10.1; in the data set “in vivo” (tumor/organ ratio Small intestine (empty)), 2.2; in “in vivo” (tumor/organ ratio Spleen) it was 1.7; in “in vivo” (tumor/organ ratio Stomach (empty)), 0.9. In data set [3], the “n-octanol-PBS distribution coefficient log D7.4” value is reported as “− 1.5 ± 0.1”.

`OC[C@H]1OC(O)[C@H]([18F])[C@@H](O)[C@@H]1O` (some centres unmarked) [[^18F]FDG]: in data set [4] (patient #2, 61-62 min p.i.), the “SUVmax around 7-week-old tracheostoma (inflammation)” value is listed as 10.2. Moreover, the “SUVmax prelaryngeal cutaneous metastasis of parotideal adenocarcinoma” value in data set [4] (patient #3, 67-71 min p.i.) is listed as 6.1. The metabolic tumor volume in data set [4] (patient #3, prelaryngeal cutaneous metastasis) came to 2.2 cm^3.
